Activity calls are given as the source filed them. The rule behind the calls is not given here.
Experiments:
HepG2 [1] = assay: Induction of apoptosis in human HepG2 cells assessed as live cells at 0.94 uM by Annexin V-FITC/propidium iodide staining based flow cytometry (reference value: 96.54%); assay type: functional
HepG2 [2] = assay: Induction of apoptosis in human HepG2 cells assessed as necrotic cells at 0.47 uM by Annexin V-FITC/propidium iodide staining based flow cytometry (reference value: 0.28%); assay type: functional
MCF7 [3] = assay: Potency index, ratio of foretinib IC50 to compound IC50 for human MCF7 cells; assay type: functional
HepG2 [4] = assay: cells; settings: Homo sapiens, HepG2, 72 h
Description: Cytotoxicity against human HepG2 cells after 72 hrs by MTT assay

HepG2 [5] = assay: Induction of apoptosis in human HepG2 cells assessed as early apoptotic cells at 0.94 uM by Annexin V-FITC/propidium iodide staining based flow cytometry (reference value: 1.11%); assay type: functional
HepG2 [6] = assay: Induction of morphological changes in human HepG2 cells assessed as chromatin condensation at 0.47 uM by acridine orange dye based inverted microscopy and fluorescence microscopic method; assay type: functional, cell-based
HepG2 [7] = assay: Induction of morphological changes in human HepG2 cells assessed as cell shrinkage at 0.47 uM by acridine orange dye based inverted microscopy and fluorescence microscopic method; assay type: functional
MCF7 [8] = assay: cells; settings: Homo sapiens, MCF7, 72 h
Description: Cytotoxicity against human MCF7 cells after 72 hrs by MTT assay

HepG2 [9] = assay: Induction of apoptosis in human HepG2 cells assessed as necrotic cells at 0.23 uM by Annexin V-FITC/propidium iodide staining based flow cytometry (reference value: 0.28%); assay type: functional
HepG2 [10] = assay: Induction of apoptosis in human HepG2 cells assessed as late apoptotic cells at 0.47 uM by Annexin V-FITC/propidium iodide staining based flow cytometry (reference value: 2.07%); assay type: functional
[11] = target: Epidermal growth factor receptor (Homo sapiens, UniProt P00533); assay: Inhibition of EGFR (unknown origin) using FAM-labeled peptide substrate after 10 mins by mobility shift assay
Epidermal growth factor receptor, sequence (P00533 whole entry): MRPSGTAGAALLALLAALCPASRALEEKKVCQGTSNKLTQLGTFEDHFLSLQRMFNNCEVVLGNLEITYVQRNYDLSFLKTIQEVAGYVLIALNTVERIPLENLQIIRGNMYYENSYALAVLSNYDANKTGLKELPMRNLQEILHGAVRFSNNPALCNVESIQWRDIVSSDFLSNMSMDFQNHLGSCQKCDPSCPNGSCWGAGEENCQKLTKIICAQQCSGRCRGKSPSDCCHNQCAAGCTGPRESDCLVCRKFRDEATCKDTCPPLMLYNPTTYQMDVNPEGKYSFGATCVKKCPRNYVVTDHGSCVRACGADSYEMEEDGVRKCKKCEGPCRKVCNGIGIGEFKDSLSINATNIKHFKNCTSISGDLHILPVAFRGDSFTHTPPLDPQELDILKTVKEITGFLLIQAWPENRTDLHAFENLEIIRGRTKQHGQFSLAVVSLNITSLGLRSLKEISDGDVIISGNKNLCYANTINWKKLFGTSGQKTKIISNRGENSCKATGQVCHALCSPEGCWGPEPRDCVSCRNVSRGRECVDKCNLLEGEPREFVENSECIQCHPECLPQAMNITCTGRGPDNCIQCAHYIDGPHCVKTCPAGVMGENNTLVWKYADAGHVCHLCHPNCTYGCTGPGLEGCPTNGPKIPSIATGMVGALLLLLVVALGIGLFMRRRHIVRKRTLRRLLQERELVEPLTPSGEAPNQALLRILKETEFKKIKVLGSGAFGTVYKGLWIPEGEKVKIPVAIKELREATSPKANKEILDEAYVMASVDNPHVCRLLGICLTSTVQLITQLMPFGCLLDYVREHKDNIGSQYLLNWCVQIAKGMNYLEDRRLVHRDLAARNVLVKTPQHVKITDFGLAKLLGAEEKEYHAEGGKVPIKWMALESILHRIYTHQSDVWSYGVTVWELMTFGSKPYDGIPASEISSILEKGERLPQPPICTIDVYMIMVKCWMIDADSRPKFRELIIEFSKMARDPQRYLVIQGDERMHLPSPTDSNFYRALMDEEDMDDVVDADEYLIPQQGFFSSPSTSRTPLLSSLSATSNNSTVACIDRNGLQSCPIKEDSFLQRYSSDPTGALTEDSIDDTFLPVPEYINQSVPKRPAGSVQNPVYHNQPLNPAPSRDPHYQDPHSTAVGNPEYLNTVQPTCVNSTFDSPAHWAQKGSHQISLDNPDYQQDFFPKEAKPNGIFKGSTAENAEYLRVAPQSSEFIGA

A549 = assay: Cytotoxicity against human A549 cells after 72 hrs by MTT assay; settings: A549, 72 h
HepG2 [12] = assay: Induction of apoptosis in human HepG2 cells assessed as late apoptotic cells at 0.23 uM by Annexin V-FITC/propidium iodide staining based flow cytometry (reference value: 2.07%); assay type: functional
[13] = target: Mast/stem cell growth factor receptor Kit (Homo sapiens, UniProt P10721); assay: Inhibition of c-Kit (unknown origin) using FAM-labeled peptide substrate after 10 mins by mobility shift assay
Mast/stem cell growth factor receptor Kit, sequence (P10721 whole entry): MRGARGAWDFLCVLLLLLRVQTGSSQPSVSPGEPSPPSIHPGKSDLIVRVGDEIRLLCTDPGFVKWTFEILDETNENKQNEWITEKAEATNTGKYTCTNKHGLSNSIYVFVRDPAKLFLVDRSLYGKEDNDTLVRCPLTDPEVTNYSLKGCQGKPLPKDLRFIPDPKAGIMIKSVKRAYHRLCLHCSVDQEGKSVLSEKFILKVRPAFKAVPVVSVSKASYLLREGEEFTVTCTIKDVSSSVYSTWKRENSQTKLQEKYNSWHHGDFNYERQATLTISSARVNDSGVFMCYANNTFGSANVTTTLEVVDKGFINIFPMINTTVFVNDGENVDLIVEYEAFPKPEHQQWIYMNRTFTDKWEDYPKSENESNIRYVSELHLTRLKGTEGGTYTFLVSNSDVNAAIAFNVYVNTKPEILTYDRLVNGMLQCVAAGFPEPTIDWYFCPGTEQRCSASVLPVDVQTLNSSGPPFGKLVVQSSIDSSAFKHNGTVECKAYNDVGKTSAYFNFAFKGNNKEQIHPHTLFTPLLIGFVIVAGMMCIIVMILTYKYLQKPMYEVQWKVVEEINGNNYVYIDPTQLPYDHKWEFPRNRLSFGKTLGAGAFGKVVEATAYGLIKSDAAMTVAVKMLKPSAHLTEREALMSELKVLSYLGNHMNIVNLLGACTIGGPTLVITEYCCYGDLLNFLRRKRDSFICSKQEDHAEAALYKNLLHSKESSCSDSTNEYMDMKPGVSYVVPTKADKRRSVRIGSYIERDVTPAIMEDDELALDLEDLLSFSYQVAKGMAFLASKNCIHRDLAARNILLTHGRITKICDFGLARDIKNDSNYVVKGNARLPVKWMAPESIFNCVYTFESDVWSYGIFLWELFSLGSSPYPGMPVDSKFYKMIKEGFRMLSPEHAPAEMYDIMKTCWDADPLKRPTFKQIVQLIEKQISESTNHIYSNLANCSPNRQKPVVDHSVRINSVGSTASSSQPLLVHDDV

[14] = target: Hepatocyte growth factor receptor (Homo sapiens, UniProt P08581); assay: Inhibition of c-Met (unknown origin) using FAM-labeled peptide substrate after 10 mins by mobility shift assay
Hepatocyte growth factor receptor, sequence (P08581 whole entry): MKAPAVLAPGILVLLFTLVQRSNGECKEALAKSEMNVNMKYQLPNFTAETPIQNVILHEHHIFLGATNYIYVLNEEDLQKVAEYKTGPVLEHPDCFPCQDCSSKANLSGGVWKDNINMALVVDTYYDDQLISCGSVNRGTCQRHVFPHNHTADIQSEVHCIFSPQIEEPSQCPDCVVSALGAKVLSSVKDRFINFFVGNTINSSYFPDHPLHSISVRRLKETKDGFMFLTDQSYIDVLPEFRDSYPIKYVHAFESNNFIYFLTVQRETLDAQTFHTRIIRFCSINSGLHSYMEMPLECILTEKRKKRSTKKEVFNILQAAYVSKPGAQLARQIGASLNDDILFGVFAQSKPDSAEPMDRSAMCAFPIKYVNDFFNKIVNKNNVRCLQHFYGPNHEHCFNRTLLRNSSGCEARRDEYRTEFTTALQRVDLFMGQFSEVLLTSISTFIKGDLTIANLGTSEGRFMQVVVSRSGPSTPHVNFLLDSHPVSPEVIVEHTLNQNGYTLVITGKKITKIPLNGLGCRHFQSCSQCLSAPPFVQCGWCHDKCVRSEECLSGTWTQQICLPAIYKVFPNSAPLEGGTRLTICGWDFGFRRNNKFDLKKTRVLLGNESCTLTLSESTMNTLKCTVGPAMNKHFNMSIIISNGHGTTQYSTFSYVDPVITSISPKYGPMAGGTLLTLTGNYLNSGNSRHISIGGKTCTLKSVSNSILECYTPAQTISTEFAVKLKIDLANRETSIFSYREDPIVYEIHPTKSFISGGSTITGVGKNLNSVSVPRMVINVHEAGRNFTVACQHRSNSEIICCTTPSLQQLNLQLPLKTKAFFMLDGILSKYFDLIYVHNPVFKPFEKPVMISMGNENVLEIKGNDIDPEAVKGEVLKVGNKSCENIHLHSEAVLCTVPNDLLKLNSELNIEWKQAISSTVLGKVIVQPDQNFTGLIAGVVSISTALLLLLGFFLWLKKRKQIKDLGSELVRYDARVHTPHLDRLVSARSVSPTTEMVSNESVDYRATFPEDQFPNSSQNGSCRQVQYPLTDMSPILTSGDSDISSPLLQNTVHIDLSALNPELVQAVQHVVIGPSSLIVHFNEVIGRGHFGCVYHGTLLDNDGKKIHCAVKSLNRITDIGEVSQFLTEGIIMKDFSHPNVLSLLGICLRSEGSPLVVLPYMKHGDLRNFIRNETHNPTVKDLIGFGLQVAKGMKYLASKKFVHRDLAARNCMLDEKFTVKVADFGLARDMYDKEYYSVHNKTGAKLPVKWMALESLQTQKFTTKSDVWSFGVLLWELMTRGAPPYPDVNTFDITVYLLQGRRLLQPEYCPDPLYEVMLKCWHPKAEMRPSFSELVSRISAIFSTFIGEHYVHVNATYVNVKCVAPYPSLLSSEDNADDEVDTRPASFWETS

HepG2 [15] = assay: Induction of apoptosis in human HepG2 cells assessed as live cells at 0.23 uM by Annexin V-FITC/propidium iodide staining based flow cytometry (reference value: 96.54%); assay type: functional
HepG2 [16] = assay: Induction of apoptosis in human HepG2 cells assessed as necrotic cells at 0.94 uM by Annexin V-FITC/propidium iodide staining based flow cytometry (reference value: 0.28%); assay type: functional
HepG2 [17] = assay: Potency index, ratio of foretinib IC50 to compound IC50 for human HepG2 cells; assay type: functional
HepG2 [18] = assay: Induction of apoptosis in human HepG2 cells assessed as early apoptotic cells at 0.23 uM by Annexin V-FITC/propidium iodide staining based flow cytometry (reference value: 1.11%); assay type: functional
HepG2 [19] = assay: Induction of apoptosis in human HepG2 cells assessed as late apoptotic cells at 0.94 uM by Annexin V-FITC/propidium iodide staining based flow cytometry (reference value: 2.07%); assay type: functional
[20] = target: Vascular endothelial growth factor receptor 2 (Homo sapiens, UniProt P35968); assay: Inhibition of VEGFR2 (unknown origin) using FAM-labeled peptide substrate after 10 mins by mobility shift assay
Vascular endothelial growth factor receptor 2, sequence (P35968 whole entry): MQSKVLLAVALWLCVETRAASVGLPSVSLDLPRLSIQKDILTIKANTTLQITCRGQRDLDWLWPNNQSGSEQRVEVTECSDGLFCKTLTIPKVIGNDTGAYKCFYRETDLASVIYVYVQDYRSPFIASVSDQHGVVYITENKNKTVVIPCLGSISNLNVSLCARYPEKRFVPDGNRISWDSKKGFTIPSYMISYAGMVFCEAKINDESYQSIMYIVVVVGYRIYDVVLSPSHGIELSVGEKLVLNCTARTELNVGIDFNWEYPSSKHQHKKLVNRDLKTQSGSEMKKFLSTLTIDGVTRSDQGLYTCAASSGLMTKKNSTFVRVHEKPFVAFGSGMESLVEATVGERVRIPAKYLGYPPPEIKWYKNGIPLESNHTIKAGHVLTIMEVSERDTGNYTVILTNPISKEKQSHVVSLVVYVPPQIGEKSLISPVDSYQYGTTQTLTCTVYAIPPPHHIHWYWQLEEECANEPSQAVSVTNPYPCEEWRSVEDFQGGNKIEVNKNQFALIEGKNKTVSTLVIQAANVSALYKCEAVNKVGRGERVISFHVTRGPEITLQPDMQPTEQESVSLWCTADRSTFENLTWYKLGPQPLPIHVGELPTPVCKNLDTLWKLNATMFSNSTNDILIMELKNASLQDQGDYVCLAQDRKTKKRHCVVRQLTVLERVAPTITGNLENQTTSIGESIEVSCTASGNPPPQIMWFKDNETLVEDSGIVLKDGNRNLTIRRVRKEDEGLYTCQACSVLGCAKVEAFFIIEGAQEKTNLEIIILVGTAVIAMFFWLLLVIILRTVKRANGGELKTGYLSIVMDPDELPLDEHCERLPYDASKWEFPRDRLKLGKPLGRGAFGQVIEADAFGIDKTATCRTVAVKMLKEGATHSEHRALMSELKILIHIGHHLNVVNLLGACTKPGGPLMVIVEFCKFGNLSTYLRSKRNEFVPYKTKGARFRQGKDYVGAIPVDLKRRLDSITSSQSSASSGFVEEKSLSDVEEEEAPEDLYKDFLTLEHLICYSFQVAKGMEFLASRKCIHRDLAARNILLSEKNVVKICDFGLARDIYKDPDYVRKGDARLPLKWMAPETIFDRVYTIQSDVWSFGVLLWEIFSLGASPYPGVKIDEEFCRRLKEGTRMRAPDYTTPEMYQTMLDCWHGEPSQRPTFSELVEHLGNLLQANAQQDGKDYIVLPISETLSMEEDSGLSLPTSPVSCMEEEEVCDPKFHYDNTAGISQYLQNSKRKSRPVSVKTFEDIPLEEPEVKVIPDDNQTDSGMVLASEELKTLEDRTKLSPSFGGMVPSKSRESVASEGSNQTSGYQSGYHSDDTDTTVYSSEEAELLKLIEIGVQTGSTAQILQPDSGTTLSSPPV

HepG2 [21] = assay: Induction of apoptosis in human HepG2 cells assessed as early apoptotic cells at 0.47 uM by Annexin V-FITC/propidium iodide staining based flow cytometry (reference value: 1.11%); assay type: functional
HepG2 [22] = assay: Induction of apoptosis in human HepG2 cells by Annexin V-FITC/propidium iodide staining based flow cytometry; assay type: functional, cell-based
[23] = target: T1, Receptor-type tyrosine-protein kinase FLT3 (Homo sapiens, UniProt P36888); assay: Inhibition of FLT3 (unknown origin) using FAM-labeled peptide substrate after 10 mins by mobility shift assay
T1 sequence (P36888 whole entry): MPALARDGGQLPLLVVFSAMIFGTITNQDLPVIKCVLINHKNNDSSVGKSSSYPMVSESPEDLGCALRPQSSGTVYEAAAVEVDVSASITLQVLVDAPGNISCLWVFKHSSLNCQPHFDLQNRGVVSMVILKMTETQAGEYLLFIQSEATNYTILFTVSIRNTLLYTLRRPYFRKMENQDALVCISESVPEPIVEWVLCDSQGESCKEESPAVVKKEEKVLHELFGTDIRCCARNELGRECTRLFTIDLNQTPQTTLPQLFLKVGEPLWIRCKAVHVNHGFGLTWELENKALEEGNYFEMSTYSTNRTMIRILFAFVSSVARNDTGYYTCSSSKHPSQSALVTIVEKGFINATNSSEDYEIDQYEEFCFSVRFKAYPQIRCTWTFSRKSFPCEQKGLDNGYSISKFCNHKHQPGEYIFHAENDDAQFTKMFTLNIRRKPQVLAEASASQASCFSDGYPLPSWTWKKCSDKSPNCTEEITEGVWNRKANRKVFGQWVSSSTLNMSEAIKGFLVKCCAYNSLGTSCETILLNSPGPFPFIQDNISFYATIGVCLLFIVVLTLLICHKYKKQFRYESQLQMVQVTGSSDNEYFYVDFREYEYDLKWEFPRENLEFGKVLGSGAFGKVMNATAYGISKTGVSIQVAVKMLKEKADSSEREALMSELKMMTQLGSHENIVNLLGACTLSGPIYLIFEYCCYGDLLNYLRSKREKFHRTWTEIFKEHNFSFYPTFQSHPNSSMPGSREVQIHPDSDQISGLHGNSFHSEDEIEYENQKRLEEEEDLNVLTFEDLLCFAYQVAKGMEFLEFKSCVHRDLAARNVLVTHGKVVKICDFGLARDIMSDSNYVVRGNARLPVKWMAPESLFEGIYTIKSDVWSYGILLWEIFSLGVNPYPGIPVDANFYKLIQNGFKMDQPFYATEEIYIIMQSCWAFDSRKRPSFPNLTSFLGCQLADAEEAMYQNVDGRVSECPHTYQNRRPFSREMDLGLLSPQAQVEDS

HepG2 [24] = assay: Induction of apoptosis in human HepG2 cells assessed as live cells at 0.47 uM by Annexin V-FITC/propidium iodide staining based flow cytometry (reference value: 96.54%); assay type: functional

IC50 (HepG2 [4]): 470 nM
IC50 (MCF7 [8]): 740 nM
IC50 [11]: 6900 nM
IC50 [13]: 3700 nM
IC50 [14]: 19 nM
IC50 [20]: 450 nM
IC50 [23]: 950 nM
SMILES: Cc1cc(=O)n(-c2ccc(F)cc2)nc1C(=O)Nc1ccc(Oc2ncnc3ccsc23)c(F)c1
Activity (HepG2 [1]): 62.8%
Activity (HepG2 [2]): 1.25%
Ratio IC50 (MCF7 [3]): 3.73 - 5.39
Activity (HepG2 [5]): 13.9%
Activity (HepG2 [6]): Active
Activity (HepG2 [7]): Active
Activity (HepG2 [9]): 1.28%
Activity (HepG2 [10]): 10.3%
IC50 (A549): 580 nM
Activity (HepG2 [12]): 6.54%
Activity (HepG2 [15]): 84.11%
Activity (HepG2 [16]): 2.31%
Ratio IC50 (HepG2 [17]): 3.73 - 5.39
Activity (HepG2 [18]): 8.08%
Activity (HepG2 [19]): 21%
Activity (HepG2 [21]): 16.09%
Activity (HepG2 [22]): Dose-dependent effect
Activity (HepG2 [24]): 72.36%

From ChEMBL document CHEMBL4184177, “Synthesis and bioevaluation study of novel N-methylpicolinamide and thienopyrimidine derivatives as selectivity c-Met kinase inhibitors” (Bioorg Med Chem, 2018)
